The subject of experiment [1] is scarring resulting from full thickness cutaneous incisional wounds. The experiment can be described thus: Rat incisional wound scarring model, macroscopic VAS assessment of scars. Type of experiment: in vivo, male Sprague Dawley rats. As to conditions: day 70 post-wounding. Here is the method:
(§1) The GABAA receptor agonist Gaboxadol hydrochloride (Sigma Aldrich, catalogue number T101) was diluted in phosphate buffered saline (PBS) to produce medicaments of the invention having the following concentrations:
(§2) i) 1.76 ng/100 μL (a concentration of 0.1 μM, in which each […] of the medicament provides 10 pmoles of Gaboxadol hydrochloride); ii) 1.76 μg/100 μL (a concentration of 100 μM, in which each 100 μl of the medicament provides 10 nmoles of Gaboxadol hydrochloride); and iii) 8.83 μg/100 μL (a concentration of 500 μM, in which each 100 μl of the medicament provides 50 nmoles of Gaboxadol hydrochloride).
(§3) At day 0, male Sprague Dawley rats (200-250 g) were anaesthetised, shaved and wound sites were marked according to a template in which two wounds, each 1 cm in length, were made at sites 5 cm from the base of the skull and 1 cm from the midline on the back of each rat.
(§4) One hundred microlitres of either one of the medicaments of the invention (comprising either 0.1 μM, 100 μM or 500 μM Gaboxadol hydrochloride in phosphate buffered saline pH 7.2—purchased from GIBCO BRL, Cat. # 20012-019), or placebo (PBS only) was injected intradermally at the wound sites. The intradermal injections caused the formation of a raised bleb, which was then immediately incised to form 1 cm long experimental wounds.
(§5) All treated or diluent control wounds were re-injected again 1 day post-wounding with the appropriate treatment (drug or placebo) via injection of 50 μl to each of the two margins of the 1 cm wound. All wounds were all harvested at day 70 post-wounding.
The wounds were photographed after wounding, prior to re-injection on day 1 and on day of harvest. The scars were assessed using a visual analogue scale (VAS) consisting of a 0-10 cm line representing a scale, from left to right, of 0 (corresponding to normal skin) to 10 (indicative of a bad scar).

Experiment [2] has the same test system. The experiment can be described thus: Rat incisional wound scarring model, microscopic assessment of scars (Masson's trichrome). Type of experiment: in vivo, male Sprague Dawley rats. The settings on record: day 70 post-wounding. Here is the method:
as §1, §2, §3, §4, §5
For microscopic assessment the scars were excised from the experimental rats (incorporating a small amount of surrounding normal tissue) and fixed in 10% (v/v) buffered formal saline. The fixed tissue was then processed for wax histology, stained using Masson's trichrome, and scarring in the regenerated dermis was assessed.

In experiment [3] the target is GABAA receptors containing α4β3δ subunits (Homo sapiens, UniProt P28472+P48169). The settings on record: Brown et al. 2002, cited from earlier work.
Experiment [4] has as its system GABAA receptor. The settings on record: relative to GABA; cited from earlier work.

Entries after “also recorded” stand apart in the source; their conditions may differ. Structures can show the parent of a compound that is named as a salt.

Chain of GABAA receptors containing α4β3δ subunits (P48169 36-554): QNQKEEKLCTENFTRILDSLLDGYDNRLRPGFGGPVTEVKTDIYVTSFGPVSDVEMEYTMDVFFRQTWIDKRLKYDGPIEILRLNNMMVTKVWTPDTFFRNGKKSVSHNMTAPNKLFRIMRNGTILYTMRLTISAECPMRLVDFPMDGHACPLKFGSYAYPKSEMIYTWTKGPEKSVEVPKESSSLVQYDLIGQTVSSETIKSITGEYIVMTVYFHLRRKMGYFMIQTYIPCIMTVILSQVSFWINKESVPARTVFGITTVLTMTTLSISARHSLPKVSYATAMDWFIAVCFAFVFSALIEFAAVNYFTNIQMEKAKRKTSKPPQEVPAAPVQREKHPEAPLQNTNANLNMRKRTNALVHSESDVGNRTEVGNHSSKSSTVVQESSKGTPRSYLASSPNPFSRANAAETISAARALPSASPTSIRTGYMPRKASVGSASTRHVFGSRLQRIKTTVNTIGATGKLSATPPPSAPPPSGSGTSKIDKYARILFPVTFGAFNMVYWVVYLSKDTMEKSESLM
Chain of GABAA receptors containing α4β3δ subunits (P28472 26-473): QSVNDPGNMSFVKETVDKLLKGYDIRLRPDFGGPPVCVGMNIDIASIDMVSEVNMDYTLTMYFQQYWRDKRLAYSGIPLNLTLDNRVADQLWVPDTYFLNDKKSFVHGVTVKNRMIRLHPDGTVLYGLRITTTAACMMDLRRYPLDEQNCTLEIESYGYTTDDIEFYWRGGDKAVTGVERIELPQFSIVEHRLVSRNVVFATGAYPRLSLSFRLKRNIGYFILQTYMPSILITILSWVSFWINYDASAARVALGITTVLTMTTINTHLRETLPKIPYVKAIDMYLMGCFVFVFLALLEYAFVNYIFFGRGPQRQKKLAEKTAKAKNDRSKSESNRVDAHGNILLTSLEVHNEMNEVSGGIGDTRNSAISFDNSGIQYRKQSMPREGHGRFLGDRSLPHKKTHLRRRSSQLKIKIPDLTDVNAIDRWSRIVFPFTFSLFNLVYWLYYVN
Chain of GABAA receptors containing α4β3δ subunits (O14764 25-452 partner): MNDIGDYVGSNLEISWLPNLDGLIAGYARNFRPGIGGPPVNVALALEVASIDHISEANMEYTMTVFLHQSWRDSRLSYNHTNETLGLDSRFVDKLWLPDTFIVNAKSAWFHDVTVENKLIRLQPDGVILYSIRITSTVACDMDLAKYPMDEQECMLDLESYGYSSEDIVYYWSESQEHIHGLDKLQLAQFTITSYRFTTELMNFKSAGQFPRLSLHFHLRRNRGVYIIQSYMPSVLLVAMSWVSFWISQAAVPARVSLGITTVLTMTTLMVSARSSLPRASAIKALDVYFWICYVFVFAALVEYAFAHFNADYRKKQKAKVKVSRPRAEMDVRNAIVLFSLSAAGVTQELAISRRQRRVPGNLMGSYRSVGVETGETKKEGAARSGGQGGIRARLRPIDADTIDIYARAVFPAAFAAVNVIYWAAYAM

As for `Oc1noc2c1CCNC2` [Gaboxadol hydrochloride], the “macroscopic appearance of scars (VAS) versus diluent control” value in experiment [1] (0.1 μM solution in PBS, two intradermal injections of 100 μl (1.76 ng per centimetre each)) is given as “improved the macroscopic appearance of scars; also recorded: statistically significant inhibition of scarring”; in experiment [1] (100 μM solution in PBS, two intradermal injections of 100 μl (1.76 μg per centimetre each)), “improved the macroscopic appearance of scars; also recorded: trend towards scar reduction”; in experiment [1] (500 μM solution in PBS, two intradermal injections of 100 μl (8.83 μg per centimetre each)), “improved the macroscopic appearance of scars”. In addition, the scarring assessed microscopically in experiment [2] (0.1 μM solution in PBS), in experiment [2] (100 μM solution in PBS) and in experiment [2] (500 μM solution in PBS) was “reduction of scarring” throughout.

With `Oc1noc2c1CCNC2` [Gaboxadol, 4,5,6,7-tetrahydroisoxazolo[5,4-c]pyridine-3-ol], the EC50 in experiment [3] is 6 µM. Moreover, in experiment [3] (relative to GABA), the “maximum response (% of that of GABA)” value is 163%. In experiment [4], the “affinity for GABAA receptors compared with GABA (in words)” value was “affinity higher than that of GABA itself”.

With `NCc1cc(=O)[nH]o1` [Muscimol, muscimol], the “affinity at the GABAA receptor, greater than GABA” value in experiment [4] is 10 fold.

These data come from patent US20110082171A1, “Medicaments and Methods for Inhibition of Scarring” (Renovo Limited, priority 2008, published 2011).
